Test results: patent US20250172542A1, “METHOD FOR INDUCING ARTIFICIAL AGEING IN A STEM CELL AND USES OF SAID CELL” (Clock Bio Limited, priority 2022, published 2025)

Experiments:
Bob NGN2 and Bob N2P iNs = test: RT-PCR of neuronal markers in iNeurons treated with or without cumate; type: cell-based, human; details: RT-PCR relative to PBGD1
Protocol: (§1) NGN2 and NGN2-Progerin iPSCs were dissociated into single cells with Accutase and plated onto PDL/Geltrex coated dishes at a density of 30K cells per cm^2. Forward programming was initiated 24 hours after the split. The induction was performed in DMEM/F-12 supplemented with Glutamax (100×), Non-Essential Amino Acids (100×), 50 μM 2-Mercaptoethanol (Gibco), 1% Penicillin/Streptomycin, 1 μg/mL Dox. After 2 days of induction, the medium was switched to Neurobasal-medium supplemented with Glutamax (100×), B27 (50×), 10 ng/mL BDNF (Peprotech), 10 ng/mL NT3 (R&D Systems), 1% Penicillin/Streptomycin, and 1 μg/mL Dox. In order to age NGN2-Progerin iNeurons (iNs), at D7 post induction, cumate was added to the medium for 7 days. Pre-aged iNs were induced as described above from 5 days aged NGN-Progerin iPSCs, no additional cumate was added during the induction process.
cDNA synthesis was performed with the Maxima First Strand cDNA Synthesis Kit (Thermo Fisher Scientific). PowerUp SYBR Green Master Mix (Thermo Fisher Scientific) was used for RT-PCR. Samples were run on the QuantStudio 6 Flex Real-Timer PCR System machine (Applied Biosystems). All samples were analysed in technical duplicates and normalised to the house-keeping gene Porphobilinogen Deaminase 1 (PBGD1). Results were analysed with the ΔΔCt method. […]

[1] = tested on: GFP-Progerin expression under the cumate switch (CymR/CuO); test: Cumate dose response assay (GFP-Progerin expression in iNeurons); type: cell-based, human; details: neurons induced with doxycycline and cumate
Protocol: as §1
In order to allow for a separate control of NGN2 and progerin expression, the OPTi-OX technology was used and a dual system designed which is based on both the TetOn (Baron and Bujard (2000)) and the cumate switch (Mullick et al. (2006); Sato et al. (2020); and Seo and Schmidt-Dannert (2019)) inducible systems. This new system was referred to as (Opti-OX)^2. The cumate repressor (CymR) was first cloned into the original ROSA26 targeting vector, linked by a 2A sequence to rtTA (FIGS. 7A-F). […]

CC(C)c1ccc(C(=O)O)cc1 [cumate]
effect of cumate itself on gene expression (MAP2 and synapsin-1 downregulation) (Bob NGN2 and Bob N2P iNs): not responsible for the changes seen in gene expression | GFP expression as a function of cumate dose [1]: titrated by adjusting the dose
